{"source": "patent US20240180882A1", "about": "“COMPOUNDS FOR PROTECTION OF NOISE-INDUCED HEARING-LOSS” (The Regents of the University of California, priority 2021, published 2024)", "key": {"[1]": {"settings": "preclinical data; cited from earlier work"}, "[2]": {"settings": "analysis of known AMPK activators; cited from earlier work"}, "[3]": {"assay": "Drug distribution of Compound 1 in mouse plasma, brain and perilymph after oral dosing", "format": "in vivo", "settings": "2 h after a 300 mg/kg p.o. dose", "method": "Complete ADME and PK assessment of Compound 1 and Compound 2 at several doses by oral and intratympanic (IT) dosing in wild-type mice and in transgenic efflux-pump knock-out mice to benchmark compound exposure. […] Drug distribution of Compound 1 in a mouse was determined after dosing at 300 mg/kg."}, "[4]": {"assay": "Concentration in perilymph and plasma following intratympanic dosing in two mouse strains (LC-MS/MS)", "format": "in vivo, C57BL/6J and FVB mice", "settings": "5 μL of 5 mg/mL in 5% DMSO-95% Poloxamer 407 solution, all plasma data points except one", "method": "Compound 1 was dissolved DMSO and added to a cold solution of 20% Poloxamer 407 in PBS. The mixture was vortexed to give a solution of final solution of 5 mg/mL Compound 1 in 5% DMSO-95% Poloxamer 407 solution.\nIn fully anesthetized mice, the mouse bulla was reached through the digastric and sternocleidomastoid muscles and a 27-gauge needle was used to drill an opening adjacent to the round window niche. 5 μL of Compound 1 in the cold 5%/95% DMSO/Poloxamer 407 hydrogel vehicle was introduced by intratympanic injection in both C57BL/6J and FVB mice. Upon reaching the desired time point, mice were euthanized under deep anesthesia. Blood from the heart was collected to determine drug plasma levels. The mouse bulla was re-exposed to verify the injection site and all possible drug remaining were removed from inner ear before collecting the perilymph from the apical side of the cochlea.\nDrug levels were measured using LC-MS/MS (Q-trap) with 500 nM indomethacin as the internal standard. Perilymph samples were diluted 10× in plasma. An aliquot of 1 μL sample was protein precipitated with 50 μL IS, the mixture was vortex-mixed well and centrifuged at 3600 rpm for 10 min, Room Temp. 10 μL supernatant was injected for LC-MS/MS analysis. […]"}, "[5]": {"system": "AMPK", "assay": "AMPK activation in inner and outer hair cells of treated mice", "format": "in vivo, mouse", "text": "There has been increasing interest in AMPK activation in human disease. […] The activation pathways and downstream targets of AMPK differ depending on its subcellular localization (FIG. 8C). In response to energy stress, LKB1 activates cytoplasmic and lysosomal AMPK in an axin-dependent manner as exemplified by phosphorylation of the AMPK target ACC1, whereas it activates mitochondrial AMPK in an axin-independent manner as exemplified by phosphorylation of the AMPK target ACC2. By contrast, activation of nuclear AMPK in response to elevated intracellular Ca^2+ levels are mediated by CaMKK2. For the observed noise-induced activation of nuclear AMPK in IHCs, in the absence of which (γ2 deficiency) mice suffer greater synaptic ribbon morphometric changes and NIHL (FIGS. 3A-3D & 4A-4E), AMPK may be activated by CaMKK2, especially given that physiological sound relay to the auditory nerve in IHCs involves transient Ca2+ elevation."}, "[6]": {"assay": "PAMPA permeability", "format": "in vitro ADME"}, "[7]": {"system": "six-week-old B6 mice", "assay": "Noise-induced hearing loss in mice after moderate noise exposure (ABR thresholds, IHC synaptic ribbons), orally administered compound", "format": "in vivo, mouse", "text": "FIGS. 9A-9C depict that Compound 1 administration is protective against mid- to high-frequency hearing loss and synaptic ribbon loss. (A) Threshold elevation two-weeks after moderate noise exposure is reduced in six-week-old B6 mice treated with orally administered Compound 1 either prior or after noise exposure. […] (C) Quantification of paired synaptic ribbons in mice two weeks after exposure to moderate noise given vehicle (top row) and Compound 1 (bottom row). (n=4; scale bar=[…]).\nInducing NIHL in mice. To induce NIHL, mice are exposed to octave band noise (OBN) with a center frequency of 10 kHz for 2 hours using a method adapted from Kujawa, Sharon G., and M. Charles Liberman. “Adding insult to injury: cochlear nerve degeneration after “temporary” noise-induced hearing loss.” Journal of Neuroscience 29.45 (2009): 14077-14085., which is incorporated herein by reference in its entirety.\nThere has been increasing interest in AMPK activation in human disease. […] The activation pathways and downstream targets of AMPK differ depending on its subcellular localization (FIG. 8C). In response to energy stress, LKB1 activates cytoplasmic and lysosomal AMPK in an axin-dependent manner as exemplified by phosphorylation of the AMPK target ACC1, whereas it activates mitochondrial AMPK in an axin-independent manner as exemplified by phosphorylation of the AMPK target ACC2. […]"}, "[8]": {"assay": "Test article handling / stability information", "format": "physicochemical", "settings": "room temp"}}, "note": "Where two headings read alike, the source gives them in different places.", "data": [{"smiles": "O[C@@H]1CO[C@H]2[C@@H]1OC[C@H]2Oc1nc2nc(-c3ccc(-c4ccccc4)cc3)c(Cl)cc2[nH]1", "note": "[Compound 1, (3R,3aR,6R,6aR)-6-((5-([1,1′-biphenyl]-4-yl)-6-chloro-3H-imidazo[4,5-b]pyridin-2-yl)oxy)hexahydrofuro[3,2-b]furan-3-ol]", "values": [{"measurement": "Effect on glucose homeostasis", "setting": "[1]", "result": "improve glucose homeostasis"}, {"measurement": "Passive permeability (in words)", "setting": "[2]", "result": "high passive permeability"}, {"measurement": "concentration at 2 h", "setting": "[3]; brain, read-out: Brain level of Compound 1", "result": "45 ± 5", "unit": "µM"}, {"measurement": "concentration at 2 h", "setting": "[3]; perilymph, read-out: Perilymph level of Compound 1", "result": "0.87 ± 0.04", "unit": "µM"}, {"measurement": "concentration at 2 h", "setting": "[3]; plasma, read-out: Plasma level of Compound 1", "result": "443 ± 64", "unit": "µM"}, {"measurement": "Plasma concentration following intratympanic dosing", "setting": "[4]", "result": "below the level of detection"}, {"measurement": "AMPK activation in hair cells", "setting": "[5]", "result": "nuclear and cytoplasmic activation of AMPK in both inner and outer hair cells"}, {"measurement": "Papp", "setting": "[6]", "result": 24, "unit": "×10⁻⁶ cm/s"}, {"measurement": "ABR threshold elevation two weeks after moderate noise exposure", "setting": "[7]; orally administered either prior or after noise exposure, six-week-old B6 mice", "result": "reduced"}, {"measurement": "IHC (32 kHz region) synaptic ribbon counts after moderate noise exposure", "setting": "[7]; two weeks after exposure to moderate noise, vs vehicle, n=4", "result": "preservation"}, {"measurement": "Stability of test article", "setting": "[8]", "result": "Compound 1 stable at room temp"}]}]}
